Results: patent US20060276446A1, “Tricyclic 6-alkylidene-penems as class-D beta-lactamases inhibitors” (priority 2005, published 2006)

System: not given
Assay: not given
Conditions: not given
In the case of `O=C([O-])C1=CS[C@@H]2/C(=C\c3nc4ncc5c(n4n3)CCC3(C5)OCCO3)C(=O)N12.[Na+]` [Example 24, (5R,6Z)-6-(8′,9′-dihydro-6′H-spiro[1,3-dioxolane-2,7′-[1,2,4]triazolo[1,5-a]quinazolin]-2′-ylmethylene)-7-oxo-4-thia-1-azabicyclo[3.2.0]hept-2-ene-2-carboxylic acid, sodium salt], the melting point is reported as > 250 °C (dec.).
With `Cc1nc2nc(/C=C3/C(=O)N4C(C(=O)[O-])=CS[C@H]34)nn2c2c1CCCC2.[Na+]` [Example 25, (5R,6Z)-6-[(5-methyl-6,7,8,9-tetrahydro[1,2,4]triazolo[1,5-a]quinazolin-2-yl)methylene]-7-oxo-4-thia-1-azabicyclo[3.2.0]hept-2-ene-2-carboxylic acid, sodium salt] the melting point was 250 °C (dec.).
Work on `O=C([O-])C1=CS[C@@H]2/C(=C\c3cn4c5c(c(OCCOCc6ccccc6)nc4n3)CCC5)C(=O)N12.[Na+]` [Example 27, (5R,6Z)-6-({5-[2-(benzyloxy)ethoxy]-7,8-dihydro-6H-cyclopenta[e]imidazo[1,2-a]pyrimidin-2-yl}methylene)-7-oxo-4-thia-1-azabicyclo[3.2.0]hept-2-ene-2-carboxylic acid, sodium salt] yielded a melting point greater than 250 °C.
For `O=C([O-])C1=CS[C@@H]2/C(=C\c3ccc4nc5n(c4c3)CCCS5)C(=O)N12.[Na+]` [Example 29, (5R,6Z)-6-(3,4-dihydro-2H-[1,3]thiazino[3,2-a]benzimidazol-7-ylmethylene)-7-oxo-4-thia-1-azabicyclo[3.2.0]hept-2-ene-2-carboxylic acid, sodium salt], the melting point was greater than 250 °C.
With `O=C([O-])C1=CS[C@@H]2/C(=C\c3ccc4nc5sccn5c4c3)C(=O)N12.[Na+]` [Example 30, (5R,6Z)-7-oxo-6-([1,3]thiazolo[3,2-a]benzimidazol-6-ylmethylene)-4-thia-1-azabicyclo[3.2.0]hept-2-ene-2-carboxylic acid, sodium salt] the melting point was greater than 250 °C.

System: class-D producing organism E. coli GC 2883 (OXA-10 + PSE-2)
Assay: Antimicrobial susceptibility testing, microbroth dilution (NCCLS): piperacillin combined with β-lactamase inhibitor
Type: cell-based
Conditions: MIC of piperacillin combined with constant 4 μg/mL of the β-lactamase inhibitor (example compound), 35° C. for 18 hours
Protocol: Antimicrobial susceptibility testing. The in vitro activities of the antibiotic, piperacillin in this case, against resistant pathogens expressing class-D enzymes were determined by the microbroth dilution method as recommended by the National Committee for Clinical Laboratory Standards (NCCLS). (NCCLS. 2000. Methods for Dilution Antimicrobial Susceptibility Tests for Bacteria That Grow Aerobically; Approved Standards: M7-A5, vol. 19. National Committe for Clinical Laboratory Standards, Villanova, Pa.). Mueller-Hinton II broth (MHBII)(BBL Cockeysville, Md.), was used for the testing procedure. Microtiter plates containing 50 μl per well of two-fold serial dilutions of piperacillin combined with a constant amount (4 μg/mL) of β-lactamase inhibitor (final concentration) were inoculated with 50 μl of inoculum to yield the appropriate density (10^5 CFU/mL) in 100 μL. The plates were incubated for 18-22 hours at 35° C. in ambient air. […] Both OXA-10 and PSE-2 are class D β-lactamases. (Bush, K., Jacoby, G. A., Medeiros, A. A. Antimicrob. Agents Chemother., 1995, 39, 1211).
With `COc1ccc2c(c1)sc1nc(/C=C3/C(=O)N4C(C(=O)O)=CS[C@H]34)cn12` [Example 2] the “Minimal Inhibitory Concentration (MIC50)” value was 4 mg/L.
With `O=C(O)C1=CS[C@@H]2/C(=C\c3cn4c(n3)sc3cc(Cl)ccc34)C(=O)N12` [Example 3] the “Minimal Inhibitory Concentration (MIC50)” value was 2 mg/L.
With `O=C(O)C1=CS[C@@H]2/C(=C\c3cn4c(ccc5ccccc54)n3)C(=O)N12` [Example 4, (5R),(6Z)-6-Imidazo[1,2-a]quinolin-2-ylmethylene-7-oxo-4-thia-1-azabicyclo[3.2.0]hept-2-ene-2-carboxylic acid] the “Minimal Inhibitory Concentration (MIC50)” value was 4 mg/L.
With `O=C(O)C1=CS[C@@H]2/C(=C\c3cn4c5c(sc4n3)CCC5)C(=O)N12` [Example 5, (5R),(6Z)-6-(6,7-dihydro-5H-cyclopenta[d]imidazo[2,1-b][1,3]thiazol-2-ylmethylene)-7-oxo-4-thia-1-azabicyclo[3.2.0]hept-2-ene-2-carboxylic acid] the “Minimal Inhibitory Concentration (MIC50)” value was 2 mg/L.
For `O=C([O-])C1=CS[C@@H]2/C(=C\c3cn4c(cnc5ccccc54)n3)C(=O)N12.[Na+]` [Example 6, (5R),(6Z)-6-(Imidazo[1,2-a]quinoxaline-2-ylmethylene)-7-oxo-4-thia-1-azabicyclo[3.2.0]hepto-2-ene-2-carboxylic acid, sodium salt], the “Minimal Inhibitory Concentration (MIC50)” value was 0.06 mg/L.
In the case of `Cc1ccc2c(c1)sc1nc(/C=C3/C(=O)N4C(C(=O)O)=CS[C@H]34)cn12` [Example 7], the “Minimal Inhibitory Concentration (MIC50)” value is reported as 2 mg/L.
For `O=C([O-])C1=CS[C@@H]2/C(=C\c3cn4c(n3)nc3n4CCCC3)C(=O)N12.[Na+]` [Example 8, (5R),(6Z)-6-(4,5,6,7-tetrahydro-1,3a,3b,8-tetraaza-cyclopenta[a]indene-2-ylmethylene)-7-oxo-4-thia-1-aza-bicyclo[3.2.0]hept-2-ene-2-carboxylic acid sodium salt], the “Minimal Inhibitory Concentration (MIC50)” value was 2 mg/L.
With `O=C([O-])C1=CS[C@@H]2C(=Cc3cc4n(n3)Cc3ccccc3OC4)C(=O)N12.[Na+]` [Example 11, (5R,6E&Z)-7-oxo-6-(4H,10H-pyrazolo[5,1-c][1,4]benzoxazepin-2-ylmethylene)-4-thia-1-azabicyclo[3.2.0]hept-2-ene-2-carboxylic acid, sodium salt] the “Minimal Inhibitory Concentration (MIC50)” value was 4 mg/L.
For `O=C([O-])C1=CS[C@@H]2/C(=C\c3cn4c(n3)-c3ccccc3C4)C(=O)N12.[Na+]` [Example 12, (5R),(6Z)-6-(5H-Imidazo[2,1-a]isoindol-2-ylmethylene)-7-oxo-4-thia-1-aza-bicyclo[3.2.0]hept-2-ene-2-carboxylic acid sodium salt], the “Minimal Inhibitory Concentration (MIC50)” value was 16 mg/L.
In the case of `Cc1cccc2sc3nc(/C=C4/C(=O)N5C(C(=O)O)=CS[C@H]45)cn3c12` [Example 13], the “Minimal Inhibitory Concentration (MIC50)” value is reported as 4 mg/L.
With `O=C(O)C1=CS[C@@H]2/C(=C\c3cn4c(n3)sc3cc(F)ccc34)C(=O)N12` [Example 14] the “Minimal Inhibitory Concentration (MIC50)” value was 4 mg/L.
For `O=C(O)C1=CS[C@@H]2/C(=C\c3cn4c5c(sc4n3)COCC5)C(=O)N12` [Example 15, (5R),(6Z)-6-(5,8-dihydro-6H-imidazo[2,1-b]pyrano[4,3-d][1,3]thiazol-2-ylmethylene)-7-oxo-4-thia-1-azabicyclo[3.2.0]hept-2-ene-2-carboxylic acid], the “Minimal Inhibitory Concentration (MIC50)” value was 4 mg/L.
With `O=C(O)C1=CS[C@@H]2/C(=C\c3ccc4c(c3)sc3nccn34)C(=O)N12` [Example 16, (5R),(6Z)-6-(imidazo[2,1-b]bebzothiazol-7-ylmethylene)-7-oxo-4-thia-1-azabicyclo[3.2.0]hept-2-ene-2-carboxylic acid] the “Minimal Inhibitory Concentration (MIC50)” value was 32 mg/L.
With `O=C(O)C1=CS[C@@H]2/C(=C\c3cn4c(nc5ccccc54)s3)C(=O)N12` [Example 17, (5R),(6Z)-7-oxo-6-([1,3]thiazolo[3,2-a]benzimidazol-2-ylmethylene)-4-thia-1-azabicyclo[3.2.0]hept-2-ene-2-carboxylic acid] the “Minimal Inhibitory Concentration (MIC50)” value was 32 mg/L.
For `O=C(O)C1=CS[C@@H]2/C(=C\c3cn4nc5c(c4s3)CCC5)C(=O)N12` [Example 18, (5R),(6Z)-6-(7,8-dihydro-6H-cyclopenta[3.4]pyrazolo[5,1-b][1,3]thiazol-2-ylmethylene)-7-oxo-6-4-thia-1-azabicyclo[3.2.0]hept-2-ene-2-carboxylic acid], the “Minimal Inhibitory Concentration (MIC50)” value was 16 mg/L.
In the case of `O=C(O)C1=CS[C@@H]2/C(=C\c3cn4c5c(sc4n3)CCCC5)C(=O)N12` [Example 19, (5R),(6Z)-7-oxo-6-(5,6,7,8-tetrahydroimidazo[2,1-b][1,3]benzothiazol-2-ylmethylene)-4-thia-1-azabicyclo[3.2.0]hept-2-ene-2-carboxylic acid], the “Minimal Inhibitory Concentration (MIC50)” value is reported as 2 mg/L.
With `Cn1c2ccccc2n2cc(/C=C3/C(=O)N4C(C(=O)O)=CS[C@H]34)nc12` [Example 20, (5R),(6Z)-8-[(9-methyl-9H-imidazo[1,2-a]benzimidazol-2-yl)methylene]-7-oxo-4-thia-1-azabicyclo[3.2.0]hept-2-ene-2-carboxylic acid] the “Minimal Inhibitory Concentration (MIC50)” value was 64 mg/L.
With `O=C([O-])C1=CS[C@@H]2/C(=C\c3cccc4nc5n(c34)CCS5)C(=O)N12.[Na+]` [Example 28, (5R,6Z)-6-(2,3-dihydro[1,3]thiazolo[3,2-a]benzimidazol-4-ylmethylene)-7-oxo-4-thia-1-azabicyclo[3.2.0]hept-2-ene-2-carboxylic acid, sodium salt] the “Minimal Inhibitory Concentration (MIC50)” value was 16 mg/L.
In the case of `CCOC(=O)N1CCc2c(oc3cc(/C=C4/C(=O)N5C(C(=O)[O-])=CS[C@H]45)nn23)C1.[Na+]` [Example 33], the “Minimal Inhibitory Concentration (MIC50)” value is reported as 8 mg/L.
In the case of “(5R,6Z)-7-oxo-6-(4H-thieno[2′,3′:4,5]thiopyrano[2,3-b]pyridin-2-ylmethylene)-4-thia-1-azabicyclo[3.2.0]hept-2-ene-2-carboxylic acid (Sodium salt) [Example 21]”, the “Minimal Inhibitory Concentration (MIC50)” value is reported as 64 mg/L.
